Assay results as given in publication PMC7960226 (Science (New York, N.Y.), 2020).
Peptide text beside a SMILES is read from it.

Key:
[1] = molecular target: NR1I2 (Homo sapiens, UniProt O75469); test: safety panel assay, NR1I2; format: binding; settings: Table 2, NR1I2; accurate to ±20%
[2] = system: BioMAP Diversity PLUS panel; test: BioMAP Diversity PLUS panel of cell-based systems
[3] = molecular target: ABCB11 (Homo sapiens, UniProt O95342); test: transporter inhibition, ABCB11; format: biochemical; settings: Table 2, ABCB11; accurate to ±20%
[4] = molecular target: SLC18A2 (Homo sapiens, UniProt Q05940); test: transporter inhibition, SLC18A2; format: biochemical; settings: Table 2, SLC18A2; accurate to ±20%
[5] = molecular target: T1, SLCO2B1 (Homo sapiens, UniProt O94956); test: in vitro transporter inhibition, SLCO2B1; format: biochemical
T1 sequence (O94956 1-709): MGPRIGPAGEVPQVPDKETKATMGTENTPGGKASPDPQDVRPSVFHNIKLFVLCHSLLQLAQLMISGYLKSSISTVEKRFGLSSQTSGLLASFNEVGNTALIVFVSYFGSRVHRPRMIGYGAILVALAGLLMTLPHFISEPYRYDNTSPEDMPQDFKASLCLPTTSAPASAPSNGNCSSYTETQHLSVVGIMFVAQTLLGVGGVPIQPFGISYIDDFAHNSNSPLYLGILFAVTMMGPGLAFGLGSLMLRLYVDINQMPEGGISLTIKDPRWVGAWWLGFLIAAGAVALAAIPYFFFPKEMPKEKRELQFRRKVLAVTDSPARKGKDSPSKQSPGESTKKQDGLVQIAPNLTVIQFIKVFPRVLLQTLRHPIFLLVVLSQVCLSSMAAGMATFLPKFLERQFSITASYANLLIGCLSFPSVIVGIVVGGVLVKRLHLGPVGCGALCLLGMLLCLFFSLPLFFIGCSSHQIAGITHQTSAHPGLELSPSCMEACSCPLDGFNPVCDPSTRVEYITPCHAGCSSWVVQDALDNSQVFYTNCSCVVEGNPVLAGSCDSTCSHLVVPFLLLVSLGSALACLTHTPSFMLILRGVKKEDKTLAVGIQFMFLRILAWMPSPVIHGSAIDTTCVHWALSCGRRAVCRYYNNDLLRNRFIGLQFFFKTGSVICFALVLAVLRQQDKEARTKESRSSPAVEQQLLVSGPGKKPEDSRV

[6] = molecular target: SLC6A3 (Homo sapiens, UniProt Q01959); test: safety panel assay, SLC6A3; format: biochemical; settings: Table 2, SLC6A3; accurate to ±20%
[7] = molecular target: TBXA2R (Homo sapiens, UniProt P21731); test: safety panel assay, TBXA2R; format: binding
[8] = molecular target: T2, CHRM1 (Homo sapiens, UniProt P11229)
T2 sequence (P11229 1-460): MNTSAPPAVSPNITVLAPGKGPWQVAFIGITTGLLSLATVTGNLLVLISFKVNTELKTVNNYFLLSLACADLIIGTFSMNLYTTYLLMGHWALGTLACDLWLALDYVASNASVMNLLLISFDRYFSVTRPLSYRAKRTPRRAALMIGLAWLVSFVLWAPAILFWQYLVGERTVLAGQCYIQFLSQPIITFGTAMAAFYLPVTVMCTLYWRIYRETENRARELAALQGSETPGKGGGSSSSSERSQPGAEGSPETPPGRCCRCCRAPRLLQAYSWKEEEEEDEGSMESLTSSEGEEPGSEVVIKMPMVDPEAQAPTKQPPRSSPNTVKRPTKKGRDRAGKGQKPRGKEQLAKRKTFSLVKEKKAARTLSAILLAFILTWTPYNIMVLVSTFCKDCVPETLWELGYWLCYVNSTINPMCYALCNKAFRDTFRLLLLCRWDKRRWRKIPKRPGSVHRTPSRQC

[9] = molecular target: T3, ADRA1A (Homo sapiens, UniProt P35348); settings: Table 2, ADRA1A; accurate to ±20%
T3 sequence (P35348 1-466): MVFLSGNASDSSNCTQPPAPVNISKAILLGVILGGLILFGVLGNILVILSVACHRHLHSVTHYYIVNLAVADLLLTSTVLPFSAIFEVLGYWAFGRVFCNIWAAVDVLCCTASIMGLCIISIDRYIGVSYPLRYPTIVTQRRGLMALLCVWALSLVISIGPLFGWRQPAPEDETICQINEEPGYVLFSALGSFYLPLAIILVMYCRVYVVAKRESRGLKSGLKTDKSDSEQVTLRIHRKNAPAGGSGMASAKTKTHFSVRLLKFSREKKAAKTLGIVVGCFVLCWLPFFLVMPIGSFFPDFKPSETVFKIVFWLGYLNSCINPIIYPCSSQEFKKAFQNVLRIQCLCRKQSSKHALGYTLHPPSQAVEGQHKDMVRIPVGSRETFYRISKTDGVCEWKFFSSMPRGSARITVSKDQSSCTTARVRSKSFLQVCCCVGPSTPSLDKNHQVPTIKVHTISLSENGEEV

[10] = molecular target: SLC6A2 (Homo sapiens, UniProt P23975); settings: Table 2, SLC6A2; accurate to ±20%
[11] = molecular target: SCN5A (Homo sapiens, UniProt Q14524); settings: Table 2, SCN5A; accurate to ±20%
[12] = Madin-Darby canine kidney permeability assay; settings: dog, MDCK
[13] = Pharmacokinetics in rats after i.v. and oral administration; settings: rat
[14] = molecular target: PDE4D (Homo sapiens, UniProt Q08499); test: in vitro assay, PDE4D; format: biochemical; settings: Table 2, PDE4D; accurate to ±20%
[15] = molecular target: HTR1A (Homo sapiens, UniProt P08908); test: safety panel assay, HTR1A; format: binding; settings: Table 2, HTR1A; accurate to ±20%
[16] = molecular target: ADORA3 (Homo sapiens, UniProt P0DMS8); settings: Table 2, ADORA3; accurate to ±20%
[17] = molecular target: DRD3 (Homo sapiens, UniProt P35462); settings: Table 2, DRD3; accurate to ±20%
[18] = molecular target: PRG (Homo sapiens, UniProt P06401); settings: Table 2, PRG; accurate to ±20%
[19] = molecular target: T4, SLCO1B1 (Homo sapiens, UniProt Q9Y6L6); test: in vitro transporter assay, SLCO1B1; settings: Table 1, predicted target SLCO1B1
T4 sequence (Q9Y6L6 1-691): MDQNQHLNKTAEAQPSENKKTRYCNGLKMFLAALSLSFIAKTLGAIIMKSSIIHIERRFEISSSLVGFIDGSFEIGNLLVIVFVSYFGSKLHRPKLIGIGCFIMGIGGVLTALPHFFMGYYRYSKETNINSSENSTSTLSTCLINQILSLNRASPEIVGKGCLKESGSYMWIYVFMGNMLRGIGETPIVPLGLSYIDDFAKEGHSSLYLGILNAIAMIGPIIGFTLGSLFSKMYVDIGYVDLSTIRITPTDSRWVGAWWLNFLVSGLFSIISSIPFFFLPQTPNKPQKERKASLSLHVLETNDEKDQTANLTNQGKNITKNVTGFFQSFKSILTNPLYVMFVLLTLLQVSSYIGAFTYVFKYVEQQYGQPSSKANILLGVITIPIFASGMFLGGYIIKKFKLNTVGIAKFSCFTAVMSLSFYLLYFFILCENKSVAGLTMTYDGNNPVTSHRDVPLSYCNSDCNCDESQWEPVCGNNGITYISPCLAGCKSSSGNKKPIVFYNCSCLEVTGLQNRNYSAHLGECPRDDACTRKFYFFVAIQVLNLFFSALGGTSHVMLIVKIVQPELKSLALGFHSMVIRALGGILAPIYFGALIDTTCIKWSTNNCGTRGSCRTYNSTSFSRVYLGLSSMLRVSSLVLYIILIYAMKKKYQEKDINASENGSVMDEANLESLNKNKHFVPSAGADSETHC

[20] = molecular target: PDE3A (Homo sapiens, UniProt Q14432); test: safety panel assay, PDE3A; format: biochemical
[21] = molecular target: PRMT1 (Homo sapiens, UniProt Q99873); settings: Table 1, predicted target PRMT1
[22] = molecular target: ACHE (Homo sapiens, UniProt P22303); settings: Table 2, ACHE; accurate to ±20%
[23] = rat, in vivo, 1 mg/kg
[24] = not given; remark: listed apart in the source

Chain of PDE3A (Q14432 whole entry, species assumed): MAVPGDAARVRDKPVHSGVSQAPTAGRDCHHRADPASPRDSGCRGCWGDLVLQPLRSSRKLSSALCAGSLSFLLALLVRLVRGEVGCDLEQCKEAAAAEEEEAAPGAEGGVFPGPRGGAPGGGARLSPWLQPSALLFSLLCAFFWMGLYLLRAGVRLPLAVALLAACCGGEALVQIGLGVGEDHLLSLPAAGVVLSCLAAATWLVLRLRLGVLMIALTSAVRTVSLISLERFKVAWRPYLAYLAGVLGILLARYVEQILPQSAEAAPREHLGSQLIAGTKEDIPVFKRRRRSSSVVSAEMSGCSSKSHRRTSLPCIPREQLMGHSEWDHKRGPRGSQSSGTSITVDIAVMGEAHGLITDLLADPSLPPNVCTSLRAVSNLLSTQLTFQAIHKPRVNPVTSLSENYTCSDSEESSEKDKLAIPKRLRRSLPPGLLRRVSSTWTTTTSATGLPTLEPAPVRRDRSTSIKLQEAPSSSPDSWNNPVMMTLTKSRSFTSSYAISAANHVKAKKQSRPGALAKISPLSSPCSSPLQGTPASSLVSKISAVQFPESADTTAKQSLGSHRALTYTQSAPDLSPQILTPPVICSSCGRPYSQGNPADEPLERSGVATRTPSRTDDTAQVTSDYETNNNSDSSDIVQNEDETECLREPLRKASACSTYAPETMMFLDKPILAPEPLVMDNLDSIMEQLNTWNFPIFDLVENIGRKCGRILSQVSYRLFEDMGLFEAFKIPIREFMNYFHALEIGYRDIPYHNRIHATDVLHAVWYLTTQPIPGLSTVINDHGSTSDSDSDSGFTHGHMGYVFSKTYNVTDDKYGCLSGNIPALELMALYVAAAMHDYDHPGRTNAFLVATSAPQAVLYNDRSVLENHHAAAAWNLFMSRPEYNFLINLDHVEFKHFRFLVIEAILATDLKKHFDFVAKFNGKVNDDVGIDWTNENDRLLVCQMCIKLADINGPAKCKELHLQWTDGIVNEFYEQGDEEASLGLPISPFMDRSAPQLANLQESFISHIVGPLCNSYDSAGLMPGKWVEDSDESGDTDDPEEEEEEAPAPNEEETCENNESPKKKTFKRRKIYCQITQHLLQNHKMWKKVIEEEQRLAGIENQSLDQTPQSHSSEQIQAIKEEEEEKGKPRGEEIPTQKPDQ
Chain of SLC18A2 (Q05940 whole entry, species assumed): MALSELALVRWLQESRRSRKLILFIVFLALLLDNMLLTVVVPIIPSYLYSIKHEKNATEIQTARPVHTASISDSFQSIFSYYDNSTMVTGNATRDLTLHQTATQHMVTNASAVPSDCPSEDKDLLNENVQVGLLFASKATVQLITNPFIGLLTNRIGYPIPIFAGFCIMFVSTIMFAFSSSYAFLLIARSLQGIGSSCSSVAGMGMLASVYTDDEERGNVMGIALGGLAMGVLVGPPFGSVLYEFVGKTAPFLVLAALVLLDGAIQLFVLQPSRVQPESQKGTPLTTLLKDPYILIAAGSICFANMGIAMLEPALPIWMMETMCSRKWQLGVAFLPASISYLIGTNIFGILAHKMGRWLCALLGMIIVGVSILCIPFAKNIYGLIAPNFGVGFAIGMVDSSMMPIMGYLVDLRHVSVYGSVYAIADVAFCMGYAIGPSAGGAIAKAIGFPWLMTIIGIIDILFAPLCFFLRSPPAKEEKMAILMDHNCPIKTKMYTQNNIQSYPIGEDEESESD
Chain of PDE4D (Q08499 whole entry): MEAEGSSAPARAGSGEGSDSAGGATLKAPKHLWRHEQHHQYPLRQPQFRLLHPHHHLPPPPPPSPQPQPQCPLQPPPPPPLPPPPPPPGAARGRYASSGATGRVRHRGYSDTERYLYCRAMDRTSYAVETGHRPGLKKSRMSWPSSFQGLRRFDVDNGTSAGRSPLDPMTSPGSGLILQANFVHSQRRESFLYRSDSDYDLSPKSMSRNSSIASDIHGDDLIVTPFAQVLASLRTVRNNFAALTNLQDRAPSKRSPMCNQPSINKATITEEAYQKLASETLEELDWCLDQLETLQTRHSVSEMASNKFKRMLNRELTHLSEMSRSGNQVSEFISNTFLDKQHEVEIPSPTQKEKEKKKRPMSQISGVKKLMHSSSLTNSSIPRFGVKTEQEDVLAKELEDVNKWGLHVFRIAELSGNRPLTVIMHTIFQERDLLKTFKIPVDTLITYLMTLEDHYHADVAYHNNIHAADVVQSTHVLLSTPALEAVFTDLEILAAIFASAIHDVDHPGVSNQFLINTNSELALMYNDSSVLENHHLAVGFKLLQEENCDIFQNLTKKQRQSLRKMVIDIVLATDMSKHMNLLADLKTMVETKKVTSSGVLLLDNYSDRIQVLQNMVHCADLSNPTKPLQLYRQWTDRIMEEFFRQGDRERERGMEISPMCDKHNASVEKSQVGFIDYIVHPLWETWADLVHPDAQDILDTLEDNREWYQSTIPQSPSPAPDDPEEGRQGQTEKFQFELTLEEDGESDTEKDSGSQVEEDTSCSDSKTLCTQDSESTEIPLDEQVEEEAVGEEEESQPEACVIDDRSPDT
Chain of TBXA2R (P21731 whole entry, species assumed): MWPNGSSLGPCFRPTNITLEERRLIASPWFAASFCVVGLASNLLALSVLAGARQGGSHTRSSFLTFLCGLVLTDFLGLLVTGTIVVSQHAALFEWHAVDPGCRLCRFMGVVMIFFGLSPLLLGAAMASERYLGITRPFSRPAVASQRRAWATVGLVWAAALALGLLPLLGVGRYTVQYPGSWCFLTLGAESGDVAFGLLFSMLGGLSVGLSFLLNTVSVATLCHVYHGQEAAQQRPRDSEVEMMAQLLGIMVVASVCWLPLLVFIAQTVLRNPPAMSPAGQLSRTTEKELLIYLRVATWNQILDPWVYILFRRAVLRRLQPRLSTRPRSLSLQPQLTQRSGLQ
Chain of NR1I2 (O75469 whole entry, species assumed): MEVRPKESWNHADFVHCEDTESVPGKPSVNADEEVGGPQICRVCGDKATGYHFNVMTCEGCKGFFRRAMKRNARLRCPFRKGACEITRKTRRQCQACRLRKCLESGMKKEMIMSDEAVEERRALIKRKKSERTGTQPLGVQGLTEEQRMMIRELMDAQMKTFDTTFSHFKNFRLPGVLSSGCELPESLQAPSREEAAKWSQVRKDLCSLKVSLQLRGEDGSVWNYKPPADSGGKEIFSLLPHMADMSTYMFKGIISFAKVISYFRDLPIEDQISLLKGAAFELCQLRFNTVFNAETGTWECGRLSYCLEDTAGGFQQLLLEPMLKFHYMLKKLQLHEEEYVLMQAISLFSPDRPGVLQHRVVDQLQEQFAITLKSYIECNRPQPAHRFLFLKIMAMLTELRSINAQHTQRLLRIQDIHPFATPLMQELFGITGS
Chain of SLC6A2 (P23975 whole entry, species assumed): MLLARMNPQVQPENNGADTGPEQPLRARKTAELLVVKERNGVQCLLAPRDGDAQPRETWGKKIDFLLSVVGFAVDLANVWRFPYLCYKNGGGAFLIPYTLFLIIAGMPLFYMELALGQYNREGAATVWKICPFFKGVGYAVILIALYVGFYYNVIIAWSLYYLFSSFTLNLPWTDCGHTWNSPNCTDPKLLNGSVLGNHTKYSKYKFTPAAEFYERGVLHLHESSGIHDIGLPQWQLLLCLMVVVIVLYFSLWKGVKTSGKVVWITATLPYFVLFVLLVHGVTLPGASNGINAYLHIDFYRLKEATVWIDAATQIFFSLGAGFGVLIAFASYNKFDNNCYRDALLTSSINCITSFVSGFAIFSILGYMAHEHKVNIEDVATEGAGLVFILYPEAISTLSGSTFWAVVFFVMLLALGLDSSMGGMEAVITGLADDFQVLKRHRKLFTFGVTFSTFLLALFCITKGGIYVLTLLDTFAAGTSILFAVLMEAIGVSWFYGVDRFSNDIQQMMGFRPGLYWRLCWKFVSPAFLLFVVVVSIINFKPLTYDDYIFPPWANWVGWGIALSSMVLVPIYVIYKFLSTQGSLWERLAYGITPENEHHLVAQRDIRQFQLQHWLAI
Chain of SLC6A3 (Q01959 whole entry, species assumed): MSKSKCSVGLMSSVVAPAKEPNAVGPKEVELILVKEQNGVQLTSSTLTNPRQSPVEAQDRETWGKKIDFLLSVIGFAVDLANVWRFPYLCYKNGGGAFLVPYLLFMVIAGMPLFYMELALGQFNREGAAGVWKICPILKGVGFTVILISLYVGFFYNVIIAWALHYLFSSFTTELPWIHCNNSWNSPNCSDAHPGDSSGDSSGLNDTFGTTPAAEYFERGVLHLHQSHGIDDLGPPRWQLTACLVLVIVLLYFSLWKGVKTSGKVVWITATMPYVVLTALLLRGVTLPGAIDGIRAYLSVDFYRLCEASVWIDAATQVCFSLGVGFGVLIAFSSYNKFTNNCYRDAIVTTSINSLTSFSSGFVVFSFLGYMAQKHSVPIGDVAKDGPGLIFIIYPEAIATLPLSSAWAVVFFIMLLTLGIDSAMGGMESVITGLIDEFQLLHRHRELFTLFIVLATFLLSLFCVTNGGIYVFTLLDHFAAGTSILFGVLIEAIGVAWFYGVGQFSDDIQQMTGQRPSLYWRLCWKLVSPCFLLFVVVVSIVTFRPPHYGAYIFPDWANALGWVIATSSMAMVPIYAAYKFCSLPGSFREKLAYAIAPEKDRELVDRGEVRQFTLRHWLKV
Chain of PRMT1 (Q99873 whole entry): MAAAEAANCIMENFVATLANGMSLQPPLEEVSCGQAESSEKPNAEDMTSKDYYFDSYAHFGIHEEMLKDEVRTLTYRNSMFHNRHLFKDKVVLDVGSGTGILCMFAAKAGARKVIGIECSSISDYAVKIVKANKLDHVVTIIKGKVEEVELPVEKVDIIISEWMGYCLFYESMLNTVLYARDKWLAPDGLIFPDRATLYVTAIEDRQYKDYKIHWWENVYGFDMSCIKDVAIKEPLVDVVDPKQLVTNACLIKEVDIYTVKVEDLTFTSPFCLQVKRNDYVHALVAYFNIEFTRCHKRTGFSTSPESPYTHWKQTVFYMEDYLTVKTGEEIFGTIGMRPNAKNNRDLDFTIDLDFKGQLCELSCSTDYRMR

Compound: COC(=O)[C@H](Cc1ccccc1)NC(=O)[C@@H](N)CC(=O)O [Aspartame] (HELM PEPTIDE1{D.F.[CO[*:1]]}$$$$V2.0)
- Ki/IC50 Or EC50 [1]: 13 µM
- activity in the BioMAP cell-based systems ([2]; 1.1, 3.3, 10, 30 μM): no measurable activity

Compound: O=C(O)c1ccccc1 [Benzoic acid]
- Ki/IC50 Or EC50 [3]: 260 µM
- Ki/IC50 Or EC50 [4]: 18 µM

Compound: CCCCOC(=O)c1ccc(O)cc1 [Butylparaben]
- Ki/IC50 Or EC50 ([5]; Table 2, SLCO2B1, accurate to ±20%): 39 µM
- Ki/IC50 Or EC50 [4]: 6.6 µM
- Ki/IC50 Or EC50 [6]: 18 µM
- IC50 [7]: 19 µM
- Ki/IC50 Or EC50 ([7]; Table 2, TBXA2R, accurate to ±20%): 19 µM
- MCP-1 (CCL2) and sPGE2 levels ([2]; peripheral blood mononuclear cells and venular endothelial cells): dose-dependently decreased
- Ki/IC50 ([8]; Table 1, predicted target CHRM1): 12 µM
- Ki/IC50 Or EC50 [9]: 16 µM
- Ki/IC50 Or EC50 [10]: 20 µM
- Ki/IC50 Or EC50 [11]: 33 µM
- Papp [12]: 8.3 ×10⁻⁶ cm/s
- concentrations in the blood ([13]; dosed at 10 mg/kg oral): negligible concentrations in the blood
- Cmax ([13]; in vivo, po, 10 mg/kg): < 2.6 nM

Compound: CCCCCCCCCCCCOS(=O)(=O)[O-].[Na+] [Sodium lauryl sulfate]
- Ki/IC50 ([5]; Table 1, predicted target SLCO2B1): 2.8 µM
- Ki/IC50 Or EC50 [14]: 23 µM
- Ki/IC50 Or EC50 [15]: 15 µM
- Ki/IC50 Or EC50 ([8]; Table 2, CHRM1, accurate to ±20%): 29 µM
- Ki/IC50 Or EC50 [16]: 15 µM
- Ki/IC50 Or EC50 [9]: 15 µM
- Ki/IC50 Or EC50 [17]: 18 µM
- Ki/IC50 Or EC50 [18]: 15 µM
- Ki/IC50 [19]: 2.9 µM

Compound: FD&C Red No. 3
- Ki/IC50 Or EC50 [14]: 0.32 µM
- Ki/IC50 Or EC50 ([20]; Table 2, PDE3A, accurate to ±20%): 0.092 µM
- IC50 ([20]; Table 4, target PDE3A): 0.092 µM
- Ki/IC50 [21]: 0.46 µM
- Ki/IC50 Or EC50 [22]: 0.42 µM
- MDCK-LE Papp: <0.5 ×10⁻⁶ cm/s
- %F [23]: 0.7%
- plasma protein binding [24]: 99%
